Reference: patent publication US20250041313A1, “COMBINATION THERAPY FOR TREATMENT OF CANCER” (CITY OF HOPE, priority 2023, published 2025)

What was measured:
SBC3 xenograft = assay: SBC3 mouse xenograft, Lur/Leflu study; type: in vivo; conditions: for tumor weight at end of study: Lur 0.5 mg/kg, Leflu 3.8 mg/kg, i.p. twice a week; for reduction in tumor size/weight: vs control
Description: Athymic nude nu/nu mice were obtained from Charles River, Wilmington, MA, and were acclimated for a week before beginning the experiment. All animal experiments were carried out in accordance with a protocol approved by the Institutional Animal Care and Use Committee COH (IACUC #16004). For treatments, mice were divided into 4 groups with five mice per group and subcutaneously injected into one flank with 2×10^6 SBC3 or SBC5 cells suspensions in 100 μl of PBS. Treatment started on the 14th day when tumors became palpable. Two in vivo studies were done in this project. SBC3 and SBC 5 xenograft with i) vehicle control, ii) […] 50 mg/kg, iii) Leflu 7.5 mg/kg, and iv) […]/Leflu. SBC3 with i) vehicle control, ii) Lur 0.5 mg/kg, iii) Leflu 3.8 mg/kg, and iv) Lur/Leflu. Treatments were given to mice via i.p. twice a week for 6 weeks. Animals were examined daily for signs of tumor growth. Tumors were measured in two dimensions using calipers and body weights were recorded. Animals were photographed on days 1, 5, 10, 15, 20, 25, 30, 35, and 40 after treatment. Tumors were removed on day 40 and photographed. At the end of the study, the mice were euthanized by CO2 asphyxiation followed by cervical dislocation. The tumor weights were compared between groups using an unpaired Student's t-test. A portion of the tumor was fixed in 10% buffered formaldehyde solution and paraffin-embedded for immuno-staining. FFPE tumor sections were stained with pDRP Ser^616 antibody. Tumor sections were deparaffinized and rehydrated, followed by heat-mediated antigen retrieval (pH 6, Dako). After permeabilization and blocking, tumor sections were stained with pDRP1 Ser^616 antibody overnight, washed and incubated with Alexa 488 secondary antibody for one hour, mounted and observed on an LSM 880 with a 10×/0.45 NA objective (Carl Zeiss). Immunofluorescent confocal images were acquired for each treatment (magnification:100×). Mean immunofluorescence intensities were calculated with ZEN 2.3 Lite software.

panel of SCLC cell lines = assay: CCK-8 cytotoxicity in a panel of SCLC cell lines (statements on the panel); type: cell-based, human; conditions: 72 h
Description: The expression levels of DRP1 and DHODH in SCLC lines were compared with non-malignant BEAS 2B cells. […] Previous studies have shown that Leflu and its active metabolite Teri regulate mitochondrial morphology (9,10,26). […] In vitro cytotoxicity effect of Teri and Leflu was tested in a panel of SCLC cell lines. Ten SCLC cell lines were treated with increasing concentrations of each drug for 72 h.
Among the drugs approved for SCLC, lurbinectedin is used to treat patients with metastatic SCLC with disease progression. Lurbinectedin (Lur) is an inhibitor of RNA polymerase II, which is commonly hyperactivated in SCLC, resulting in excessive transcription in tumor cells (44). In this study, we tested the combination of Lur with Teri to see if it may reduce the viability of SCLC cells.

H446 spheroids = assay: Immunoblotting of spheroid lysates; type: cell-based, human; conditions: for DRP1 phosphorylation at Ser616: Teri 1600 and 3200 nM
Description: SCLC total cell lysates were prepared using RIPA (radioimmunoprecipitation assay lysis buffer) lysis buffer. Protein concentration was determined using DC Protein Assay Kit Bio-Rad (Hercules, CA). Samples were then run on SDS-PAGE in 4-15% polyacrylamide gels and transferred onto Immobilon membranes (Millipore, MO), blocked, incubated with specific primary antibodies at 4° C. overnight, and subsequently developed with secondary antibodies. The following primary antibody were used: pan-Actin, Phospho-DRP1 (Ser^616), Phospho-DRP1 (Ser^637), Histone H2B (V^119), Phospho-Histone H2A.X (Ser^139), Phospho-P53 (Ser^15), P-53, Cleaved PARP (Asp^214) (D64E10), Phospho-Chk1 (Ser^345) (133D3) and p21 were from Cell Signaling Technology (City of Industry, CA), β-Actin (Sigma-Aldrich, St. Luis, MO), Phospho RNA Polymerase II (S2) antibody (Bethyl Lab, Montgomery, TX), RNA Polymerase II CTD4H8 (BioLegend, San Diego, CA), DHODH (E-8), DRP1 (C-5), GAPDH (0411), c-Myc (9E10), Tom20 (F-10), FisI (B-5), OPA1 (D-9), antibodies from Santa Cruz Biotechnology (Dallas, TX) and MFN2 (Abcam, Boston, MA) and Chk1, MDM2, Cyclin CDK4 and D1, and E2F1 (Proteintech, Rosemont, IL).
SBC3 and H446 cells were plated at a density of 10,000 cells per well in 96-well ULA round-bottomed plates (S-Bio, Hudson, NH) and incubated for 72 h at 37° C., 5% CO2, and 95% humidity. Spheroids were transferred to low cell attachment dishes, grown for two days, and treated with drug. After treatment, spheroid samples were run with Western blot assay. For spheroid mitochondria visualization, they were stained with 250 nM MitoTracker® Red CMXRos and Hoechst from ThermoFisher Scientific (Waltham, MA) for 2 h after drug treatment. Spheroids were washed, fixated with 4% PFA, transferred into 96-well flat glass-bottom black microplate (Cellvis, Mountain View, CA), and mounted in wells.

| SMILES | tumor weight at end of study (SBC3 xenograft) | reduction in tumor size/weight (SBC3 xenograft) | IC50 doses compared with Teri (panel of SCLC cell lines; ten SCLC cell lines) | CDK4 (H446 spheroids) | DRP1 phosphorylation at Ser616 (H446 spheroids) | cell cytotoxicity at low doses (panel of SCLC cell lines; H69, H82, H446, SBC3, and SBC5 cells) | p21 (H446 spheroids) | IC50 (panel of SCLC cell lines; Homo sapiens, five of ten SCLC cell lines, read-out: IC50 in the five sensitive cell lines) |
| --- | --- | --- | --- | --- | --- | --- | --- | --- |
| Cc1oncc1C(=O)Nc1ccc(C(F)(F)F)cc1 [Leflunomide, leflunomide] | 1.39 ± 0.12 g | ~22% | much higher |  |  |  |  |  |
| COc1ccc2[nH]c3c(c2c1)CCN[C@]31CS[C@@H]2c3c(OC(C)=O)c(C)c4c(c3[C@H](COC1=O)N1[C@@H]2[C@H]2c3c(cc(C)c(OC)c3O)C[C@@H]([C@@H]1O)N2C)OCO4 [Lurbinectedin, lurbinectedin] | 1.09 ± 0.11 g | ~39% |  | inactivated | reduction | drastically increased cell cytotoxicity |  |  |
| C/C(O)=C(\C#N)C(=O)Nc1ccc(C(F)(F)F)cc1 [Teriflunomide, teriflunomide] |  |  |  |  | dose-dependent inhibition |  | strongly elevated | < 11 µM |
